The source made the active and inactive calls. No cut-off for these calls is given here.
Key:
[1] = test system: Hyaloperonospora parasitica; assay: Induction of systemic acquired resistance against Hyaloperonospora parasitica-induced downy mildew disease in white cabbage assessed as infected leaf area at 1 mM sprayed on leaves of one week old seedlings relative to untreated control; assay type: functional, organism-based
Brassica oleracea [2] = assay: Induction of systemic acquired resistance in Brassica oleracea (white cabbage) plants assessed as increase in glucanase activity at 1 mM sprayed on seeds by colorimetric assay; assay type: functional, organism-based
Brassica oleracea [3] = assay: Induction of systemic acquired resistance in Brassica oleracea (white cabbage) plants assessed as increase in glucanase activity at 1 mM sprayed on leaves of 3 weeks old seedlings by colorimetric assay; assay type: functional, organism-based
Brassica oleracea [4] = assay: Induction of systemic acquired resistance in Brassica oleracea (white cabbage) plants assessed as increase in chitinase activity at 1 mM sprayed on seeds by colorimetric assay; assay type: functional, organism-based
Brassica oleracea [5] = assay: Induction of systemic acquired resistance in Brassica oleracea (white cabbage) plants assessed as increase in chitinase activity at 1 mM sprayed on leaves of 3 weeks old seedlings by colorimetric assay; assay type: functional, organism-based
[6] = test system: Hyaloperonospora parasitica; assay: Induction of systemic acquired resistance against Hyaloperonospora parasitica-induced downy mildew disease in white cabbage assessed as disease index at 1 mM sprayed on leaves exposed to compound for 2 to 48 hr measured 10 days after planting; assay type: functional, organism-based; settings: TDE = time-dependent effect
Brassica oleracea [7] = assay: Induction of systemic acquired resistance in Brassica oleracea (white cabbage) plants assessed as increase in chitinase activity at 1 mM sprayed on leaves exposed to compound for 2 to 48 hr measured 10 days after planting by colorimetric assay; assay type: functional, organism-based; settings: TDE = time-dependent effect
Brassica oleracea [8] = assay: Induction of systemic acquired resistance in Brassica oleracea (white cabbage) plants assessed as increase in glucanase activity at 1 mM sprayed on leaves exposed to compound for 2 to 48 hr measured 10 days after planting by colorimetric assay; assay type: functional, organism-based; settings: TDE = time-dependent effect
[9] = test system: Hyaloperonospora parasitica; assay: Induction of systemic acquired resistance against Hyaloperonospora parasitica-induced downy mildew disease in white cabbage assessed as infected leaf area sprayed on leaves of one week old seedlings relative to untreated control; assay type: functional
Brassica oleracea [10] = assay: Induction of systemic acquired resistance in Brassica oleracea (white cabbage) plants assessed as increase in glucanase activity at 10 mM sprayed on seeds by colorimetric assay; assay type: functional, organism-based
Brassica oleracea [11] = assay: Induction of systemic acquired resistance in Brassica oleracea (white cabbage) plants assessed as increase in chitinase activity at 10 mM sprayed on seeds by colorimetric assay; assay type: functional, organism-based
Brassica oleracea [12] = assay: Induction of systemic acquired resistance in Brassica oleracea (white cabbage) plants assessed as increase in glucanase activity at 10 mM sprayed on leaves of 3 weeks old seedlings by colorimetric assay; assay type: functional, organism-based
Brassica oleracea [13] = assay: Induction of systemic acquired resistance in Brassica oleracea (white cabbage) plants assessed as increase in chitinase activity at 10 mM sprayed on leaves of 3 weeks old seedlings by colorimetric assay; assay type: functional, organism-based

CUPRIC SULFATE was tested. Which Activity [1] did it give?
The Activity was 0.01%.

Which results are given for `O=C(O)c1cc(Cl)nc(Cl)c1`?
Activity (Brassica oleracea [2]): Active; Activity (Brassica oleracea [3]): Active; Activity (Brassica oleracea [4]): Active; Activity (Brassica oleracea [5]): Active; Activity [6]: tde; Activity (Brassica oleracea [7]): tde; Activity (Brassica oleracea [8]): tde

`CCCOC(=O)NCCCN(C)C.Cl` [PROPAMOCARB HYDROCHLORIDE] was tested. Which Activity [9] did it give?
The Activity was 56.4%.

Which Activity (Brassica oleracea [10]) does the source give for MANGANESE CHLORIDE ANHYDROUS here?
The Activity was “inactive”.

What about the Activity (Brassica oleracea [11]) of the same compound?
Its Activity is “inactive”.

And the Activity (Brassica oleracea [12])?
Its Activity is “Active”.

What about the Activity (Brassica oleracea [13]) of the same compound?
The Activity was “Active”.
